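Cells were grown in 96-well plates and exposed to each compound for 48 hours at five concentrations; endpoints were interpolated linearly between bracketing concentrations, or set to the highest concentration if not reached. Here, GI50 denotes the concentration required for 50% inhibition of growth.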 Active and inactive are the calls of the source. No stated cut-off is given here; in the data, active = GI50 up to about 1.1 µM and inactive = higher.
Tests used:
Test in all cases: DTP human tumour cell line panel, 48 h
[1] = system: A498
[2] = system: COLO 205
[3] = system: HCT-116
[4] = system: HCT-15
[5] = system: HOP-62
[6] = system: HT-29
[7] = system: K562
[8] = system: MCF7
[9] = system: MDA-MB-435
[10] = system: MOLT-4
[11] = system: NCI-H460
[12] = system: NCI-H522
[13] = system: RXF 393
[14] = system: SF-268
[15] = system: SF-295
[16] = system: SF-539
[17] = system: SNB-19
[18] = system: SR
[19] = system: SW-620
[20] = system: UACC-62

C#CCSc1nc(-c2ccco2)n[nH]1
GI50 [1]: > 100 µM (inactive) | GI50 [2]: > 100 µM (inactive) | GI50 [3]: > 100 µM (inactive) | GI50 [4]: > 100 µM | GI50 [5]: 49.3 µM (inactive) | GI50 [6]: > 100 µM (inactive) | GI50 [7]: > 100 µM (inactive) | GI50 [8]: > 100 µM (inactive) | GI50 [9]: > 100 µM (inactive) | GI50 [10]: > 100 µM (inactive) | GI50 [11]: > 100 µM (inactive) | GI50 [12]: > 100 µM (inactive) | GI50 [13]: > 100 µM (inactive) | GI50 [14]: > 100 µM (inactive) | GI50 [15]: > 100 µM (inactive) | GI50 [16]: > 100 µM (inactive) | GI50 [17]: > 100 µM (inactive) | GI50 [18]: > 100 µM (inactive) | GI50 [19]: > 100 µM (inactive) | GI50 [20]: > 100 µM (inactive)

O=C(O)Cc1cc(Cl)ccc1O
GI50 [1]: > 100 µM (inactive) | GI50 [2]: > 100 µM (inactive) | GI50 [3]: > 100 µM (inactive) | GI50 [4]: > 100 µM | GI50 [5]: > 100 µM (inactive) | GI50 [6]: > 100 µM (inactive) | GI50 [8]: > 100 µM (inactive) | GI50 [9]: > 100 µM (inactive) | GI50 [11]: > 100 µM (inactive) | GI50 [12]: > 100 µM (inactive) | GI50 [13]: > 100 µM (inactive) | GI50 [14]: > 100 µM (inactive) | GI50 [15]: > 100 µM (inactive) | GI50 [16]: > 100 µM (inactive) | GI50 [17]: > 100 µM (inactive) | GI50 [18]: > 76.9 µM (inactive) | GI50 [19]: > 100 µM (inactive) | GI50 [20]: > 100 µM (inactive)

c1ccc(/N=C2\SC(c3ccccc3)CN2C23CC4CC(CC(C4)C2)C3)cc1 (stereo not given)
GI50 [1]: > 100 µM (inactive) | GI50 [2]: > 100 µM (inactive) | GI50 [3]: > 100 µM (inactive) | GI50 [4]: > 100 µM | GI50 [5]: > 100 µM (inactive) | GI50 [6]: > 100 µM (inactive) | GI50 [7]: > 100 µM (inactive) | GI50 [8]: > 100 µM (inactive) | GI50 [9]: > 100 µM (inactive) | GI50 [10]: > 100 µM (inactive) | GI50 [11]: > 100 µM (inactive) | GI50 [12]: > 100 µM (inactive) | GI50 [13]: > 100 µM (inactive) | GI50 [14]: > 100 µM (inactive) | GI50 [15]: > 100 µM (inactive) | GI50 [16]: > 100 µM (inactive) | GI50 [17]: > 100 µM (inactive) | GI50 [18]: > 100 µM (inactive) | GI50 [19]: > 100 µM (inactive)

Cc1cn(C2CC(N=[N+]=[N-])C(C(=O)O)O2)c(=O)[nH]c1=O (stereo not given)
GI50 [1]: > 100 µM (inactive) | GI50 [2]: > 100 µM (inactive) | GI50 [3]: > 100 µM (inactive) | GI50 [4]: > 100 µM | GI50 [5]: > 100 µM (inactive) | GI50 [6]: > 100 µM (inactive) | GI50 [7]: > 100 µM (inactive) | GI50 [8]: > 100 µM (inactive) | GI50 [9]: > 100 µM (inactive) | GI50 [10]: > 100 µM (inactive) | GI50 [11]: > 100 µM (inactive) | GI50 [12]: > 100 µM (inactive) | GI50 [13]: > 100 µM (inactive) | GI50 [14]: > 100 µM (inactive) | GI50 [16]: > 100 µM (inactive) | GI50 [17]: > 100 µM (inactive) | GI50 [18]: > 100 µM (inactive) | GI50 [19]: > 100 µM (inactive) | GI50 [20]: > 100 µM (inactive)

C#CCOCC12C=CC(O1)C1C(=O)OCC12 (stereo not given)
GI50 [1]: > 100 µM (inactive) | GI50 [2]: > 100 µM (inactive) | GI50 [3]: > 100 µM (inactive) | GI50 [4]: > 100 µM | GI50 [5]: > 100 µM (inactive) | GI50 [6]: > 100 µM (inactive) | GI50 [7]: > 100 µM (inactive) | GI50 [8]: > 100 µM (inactive) | GI50 [9]: > 100 µM (inactive) | GI50 [10]: > 100 µM (inactive) | GI50 [11]: > 100 µM (inactive) | GI50 [12]: > 100 µM (inactive) | GI50 [13]: > 100 µM (inactive) | GI50 [14]: > 100 µM (inactive) | GI50 [15]: > 100 µM (inactive) | GI50 [16]: > 100 µM (inactive) | GI50 [17]: > 100 µM (inactive) | GI50 [18]: > 100 µM (inactive) | GI50 [19]: > 100 µM (inactive) | GI50 [20]: > 100 µM (inactive)

C#C[C@]1(O)CC[C@H]2[C@@H]3CCC4=C/C(=N/OC(=O)c5cccc6c(=O)c7ccccc7[nH]c56)CCC4[C@H]3CC[C@@]21CC (stereo not given in full)
GI50 [1]: 10.1 µM (inactive) | GI50 [2]: 37.2 µM (inactive) | GI50 [3]: 25 µM (inactive) | GI50 [4]: 13.4 µM | GI50 [5]: 49.1 µM (inactive) | GI50 [6]: 8.28 µM (inactive) | GI50 [7]: 10.9 µM (inactive) | GI50 [8]: 25.1 µM (inactive) | GI50 [9]: 26.5 µM (inactive) | GI50 [10]: 4.3 µM (inactive) | GI50 [11]: 14.3 µM (inactive) | GI50 [12]: 20.8 µM (inactive) | GI50 [13]: 2.34 µM (inactive) | GI50 [14]: 66.4 µM (inactive) | GI50 [15]: 3.69 µM (inactive) | GI50 [17]: 69.3 µM (inactive) | GI50 [18]: 3.25 µM (inactive) | GI50 [19]: 24 µM (inactive) | GI50 [20]: 20.4 µM (inactive)

S=C1N=C(Cl)/C(=C\c2ccccc2)N1
GI50 [1]: > 100 µM (inactive) | GI50 [2]: > 100 µM (inactive) | GI50 [3]: > 100 µM (inactive) | GI50 [4]: > 100 µM | GI50 [5]: > 100 µM (inactive) | GI50 [6]: > 100 µM (inactive) | GI50 [7]: > 100 µM (inactive) | GI50 [8]: > 100 µM (inactive) | GI50 [9]: > 100 µM (inactive) | GI50 [10]: > 100 µM (inactive) | GI50 [11]: > 100 µM (inactive) | GI50 [12]: > 100 µM (inactive) | GI50 [13]: > 100 µM (inactive) | GI50 [14]: > 100 µM (inactive) | GI50 [15]: > 100 µM (inactive) | GI50 [16]: > 100 µM (inactive) | GI50 [17]: > 100 µM (inactive) | GI50 [18]: > 100 µM (inactive) | GI50 [19]: > 100 µM (inactive) | GI50 [20]: > 100 µM (inactive)

Reference: ChEMBL document CHEMBL1201862, “PubChem BioAssay data set” (2004)
